This is an account of results in BindingDB's records for doi:10.1021/jm301755q (University Health Network, 2013).

Assay [1] addresses Protein-arginine deiminase type-4 (Homo sapiens) (UniProt Q9UM07). Nature of the assay: Inhibition of PAD4 (unknown origin) at 37 degC.
For assay [2] the target is unchanged. Description: Inhibition of PAD4 (unknown origin) at 52 degC.

Structures are written as SMILES.

Sequence of Protein-arginine deiminase type-4 (Homo sapiens) (Q9UM07 whole entry, looked up): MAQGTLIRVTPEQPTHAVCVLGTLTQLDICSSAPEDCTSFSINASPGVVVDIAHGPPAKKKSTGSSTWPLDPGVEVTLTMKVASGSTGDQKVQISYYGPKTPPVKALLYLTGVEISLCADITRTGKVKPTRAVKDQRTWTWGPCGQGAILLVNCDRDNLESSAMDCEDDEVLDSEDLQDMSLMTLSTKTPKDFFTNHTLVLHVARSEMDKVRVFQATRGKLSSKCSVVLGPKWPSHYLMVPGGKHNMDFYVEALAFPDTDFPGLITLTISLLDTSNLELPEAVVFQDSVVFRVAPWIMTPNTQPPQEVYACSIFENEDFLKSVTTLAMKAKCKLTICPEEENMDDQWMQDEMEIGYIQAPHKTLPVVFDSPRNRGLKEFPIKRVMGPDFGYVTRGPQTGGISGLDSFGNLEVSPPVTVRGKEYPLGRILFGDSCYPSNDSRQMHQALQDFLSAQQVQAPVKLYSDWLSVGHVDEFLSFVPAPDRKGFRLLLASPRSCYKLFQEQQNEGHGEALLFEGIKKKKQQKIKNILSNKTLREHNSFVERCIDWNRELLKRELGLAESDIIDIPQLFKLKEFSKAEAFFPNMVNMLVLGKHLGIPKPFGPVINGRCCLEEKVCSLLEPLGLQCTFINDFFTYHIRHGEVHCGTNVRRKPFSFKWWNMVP

`CC(=NN=C(N)N)C1=CC(C)(C)CCC1`: in assay [1], the IC50 was determined as 1460 µM and the Ki worked out at 127 µM. In assay [2], this molecule showed an IC50 of 790 µM and a Ki of 69 µM.
In assay [1], `CC1CCc2c(sc3ncn(N)c(=N)c23)C1` (stereo unspecified) displayed an IC50 of 1760 µM and a Ki of 153 µM. In assay [2], this molecule yielded an IC50 of 757 µM and a Ki of 66 µM.
The corresponding values for `CC1(C)NC(=O)N(CN2CCNCC2)C1=O` are 1380 µM, 131 µM, 4270 µM and 371 µM.
For `C[C@H]1C(=O)Nc2ccc(-c3csc(N=C(N)N)n3)cc21` the same measures were 1320 µM, 115 µM, 2650 µM and 231 µM.

The IC50 is the concentration at which inhibition is half-maximal. As usually defined, the Ki is the equilibrium dissociation constant of an inhibitor or competing ligand from its target. A higher Ki goes with weaker binding.
